Consider two compounds from patent US6346642B1, “Mixed crystals comprising aspartame and aspartame derivative and process for producing the same” (Ajinomoto Co., Inc., priority 1997, dated 2002).

Peptide text beside a SMILES is read from it.

Assay [1] is described as follows: Properties in quality of sweetness compared to sucrose (inventors' findings). An excerpt: It is strong in astringency (astringent taste) and badly-balanced for quality of sweetness as compared to sucrose. On the other hand, with respect to APM, its properties for quality of sweetness is weak in early taste, and strong in later taste, although they are not so bad as those in N-(3,3-dimethylbuty)-APM. Therefore, any one of both compounds has the properties for quality of sweetness which is weak in early taste, and strong in later taste, and thus is out of quality of sweetness, taking into account the fact that sucrose is natural in sweetness.

The conditions of assay [2]: relative to sucrose, by weight ratio; cited from earlier work.

For `COC(=O)[C@H](Cc1ccccc1)NC(=O)[C@@H](N)CC(=O)O` [APM, aspartame] (H-Asp-Phe-OMe), in assay [1] (quality of sweetness), the “early taste (tastes sweet as early as sucrose)” value was “weak” and the “later taste (tastes sweet later than sucrose)” value is “strong”.

`COC(=O)[C@H](Cc1ccccc1)NC(=O)[C@H](CC(=O)O)NCCC(C)(C)C` [N-(3,3-dimethylbutyl)-APM, N-[N-(3,3-dimethylbutyl)-L-α-aspartyl]-L-phenylalanine methyl ester]: in assay [2], the sweetening potency was 10,000 times by weight ratio that of. Moreover, the “quality of sweetness (balance)” value in assay [1] is “badly-balanced”. For the same compound, in assay [1] (quality of sweetness), the “astringency (astringent taste)” value is given as “strong”, the “early taste (tastes sweet as early as sucrose)” value is “extremely weak” and the “later taste (tastes sweet later than sucrose)” value is on record as “extremely strong”.
